Data set [1] can be described thus: solubility in water and buffered solutions. It is filed as physicochemical. The conditions noted are these: water and buffered solutions between pH 2 and 8.
Data set [2] is described as follows: hygroscopicity. Type of data set: physicochemical. The conditions noted are these: compared with the amorphous zwitterion of formula (IV). The source says:
(§1) The enhanced stability and non-hygroscopic nature of the crystalline salt constitute advantageous properties in the preparation of solid pharmaceutical dosage forms containing the pharmacologically active ingredient.

Data set [3] can be described thus: chemical stability to heat and light. The note with it: compared with the amorphous parent zwitterionic compound of formula (IV). Type of data set: physicochemical.
Excerpt: as §1

Structures can show the parent of a compound that is named as a salt.

As usually defined, the melting point is the temperature of the solid-liquid transition. `COc1ncc(C(CC(=O)O)CC(=O)CCCCc2ccc3c(n2)NCCCC3)cn1.O=P(O)(O)O` (single isomer, unassigned) [1-17a, 3(S or R)-(2-Methoxy-pyrimidin-5-yl)-5-oxo-9-(6,7,8,9-tetrahydro-5H-pyrido[2,3-b]azepin-2-yl)-nonanoic Acid Phosphoric Acid Salt] registered a melting point of 127 °C.

By solubility is commonly meant the concentration that dissolves in the medium under given conditions. Read a high solubility as much dissolved substance. As for `COc1ncc(C(CC(=O)O)CC(=O)CCCCc2ccc3c(n2)NCCCC3)cn1` (stereo not shown) [salt of formula I, phosphoric acid salt of 3-(2-methoxy-pyrimidin-5-yl)-5-oxo-9-(6,7,8,9-tetrahydro-5H-pyrido[2,3-b]azepin-2-yl)-nonanoic acid], the solubility in data set [1] was above 12 mg/mL. Moreover, in data set [2], the hygroscopicity entry is reported as “significantly less hygroscopic”. Moreover, in data set [3], the “chemical stability to heat and light” value is “greater chemical stability to heat and light”.

The values above are taken from patent US20050101593A1, “Phosphoric acid salt of an integrin receptor antagonist” (priority 2000, published 2005).
